Source: patent US4758558A, “N-(substituted)-[7-(2-cyanoacetamido)cephalosporanic]amide derivatives having antibiotic utility” (priority 1982, dated 1988)

Tests used:
[1] = test system: Escherichia coli IFO 12734; experiment: Antibacterial activity in vitro (MIC) against Escherichia coli; type: cell-based; settings: IFO12734, Mueller-Hinton agar, 18 to 24 hours, 37° C., read-out: MIC (minimum growth inhibiting concentration) against Escherichia coli
Protocol: (§1) (c) Anti-bacterial activity (in vitro):
(§2) Minimum concentration of the present compound inhibiting the growth of the following bacteria was determined according to the standard procedures of Japan Society of Chemotherapy:
Escherichia coli IFO 12734 and
(§3) Determination of the antibacterial activity of the present compound produced in Examples 1 to 18, respectively was carried out according to the standard procedures of Japan Society of Chemotherapy for finding MIC (the minimum concentration of a specimen to inhibit the growth of a species of bacteria).
(§4) A series of diluted solutions of each of the present compound were mixed with 9 times by weight of Mueller-Hinton's culture medium as the culture medium for determining the sensitivity of a bacterial species, and flat agar culture plates were prepared by using the thus obtained mixture.
(§5) Each of the liquids respectively containing one of the bacterial species shown in Table 2 was smeared onto each of the thus prepared flat agar culture plates with a platinum loop, in length of about 2 cm, and the thus treated plates were incubated for 18 to 24 hours at 37° C. Thereafter, by observing the growth state of each bacterial species on the cultured plates, the minimum concentration of each compound completely inhibiting the growth of each bacterial species was found.

[2] = test system: Staphylococcus aureus IAM 1011; experiment: Antibacterial activity in vitro (MIC) against Staphylococcus aureus; type: cell-based; settings: IAM1011, Mueller-Hinton agar, 18 to 24 hours, 37° C., read-out: MIC (minimum growth inhibiting concentration) against Staphylococcus aureus
Protocol: as §1, §2
Staphylococcus aureus IAM 1011
as §3, §4, §5

Lactobacillus bifidus = experiment: Effect on intestinal bacteria: number of Lactobacillus bifidus in feces; type: in vivo, ICR mice; settings: mouse, in vivo, po, 500 mg/kg/day
Protocol: (§6) (b) Effect on the intestinal bacterial colonies: […]
(§7) Effects of the present compound on intestinal bacteria
(§8) Each of the present compounds respectively produced in Examples 1 to 18 was orally administered continuously for 2 days at a daily dose rate of 500 mg/kg body weight to each of five female ICR mice of each group after 6 weeks of their birth.
(§9) Each of the two fecal specimens respectively collected from each mouse before and after one day of the administration was diluted with 100 times by weight of an anaerobic diluent (a phosphoric acid buffer solution) and was ground in a mortar, and 0.1 ml of the thus ground material was smeared on each of the following culture media for the following bacteria, and the thus inoculated culture media were incubated under the following conditions. Thereafter, the number of the following bacteria in each of the thus cultured media was determined.
BS agar 37° C., 5 days, […]

[3] = test system: a species of Lactobacillus; experiment: Effect on intestinal bacteria: number of a sp. of Lactobacillus in feces; type: in vivo, ICR mice; settings: mouse, in vivo, po, 500 mg/kg/day
Protocol: as §6, §7, §8, §9
a species of Lactobacillus
LBS agar 37° C., 5 days, […]

a species of Bacteroides = experiment: Effect on intestinal bacteria: number of a sp. of Bacteroides in feces; type: in vivo, ICR mice; settings: mouse, in vivo, po, 500 mg/kg/day
Protocol: as §6, §7, §8, §9
a species of Bacteroides
NBGT agar 37° C., 5 days, […]

[4] = test system: Escherichia coli IFO 12734; experiment: Treatment of experimental infectious disease in mouse due to Escherichia coli; type: in vivo, ddY SPE mice; settings: oral, two times just after and 4 hours after inoculation; 1.4×10^8 cells i.p.
Description: (§10) (e) Effectiveness in treating experimental infectious disease due to bacteria:
(§11) (Refer to Example 22 for the details of the test.) As the result, while all the twenty mice artificially infected with each of the two bacterial species and not-treated with any of the present compound died on the second day of inoculation, more than 40% of the twenty mice artificially infected with each of the two bacterial species and administered with each of the three present compounds were alive even after 7 days of inoculation.
(§12) Effectiveness of the present compound in treatment of an experimental infectious disease in mouse
(1) Disease due to infection of Escherichia coli
Each mouse of the two groups (20 animals/group) of ddY SPE mice was inoculated with 1.4×10^8 cells of Escherichia coli IFO 12734 intraperitoneally, and then, each mouse of the one of the two groups was administered orally with one of the present compounds, namely the compound produced in Example 5, 10 or 13, two times just after and 4 hours after the inoculation, while the 20 mice of the other group were not administered.

Escherichia coli = experiment: Effect on intestinal bacteria: number of Escherichia coli in feces; type: in vivo, ICR mice; settings: after oral administration for 2 days, 500 mg/kg/day, female ICR mice; before: 6.4
Protocol: (b) Effect on the intestinal bacterial colonies:
[…] Each portion of the two kinds of the feces was cultured at 25° C. or 37° C. in a variety of culture medium for one to five days to see the state of Escherichia coli, Pseudomonas aeruginosa, a Streptococcus species, a Lactobacillus species, Lactobacillus bifidus and a Bacteroides species in the culture medium.
as §7
Each of the two fecal […] by weight of an anaerobic diluent (a phosphoric acid buffer solution) and was ground in a mortar, and 0.1 ml of the thus ground material was smeared on each of the following culture media for the following bacteria, and the thus inoculated culture media were incubated under the following conditions. Thereafter, the number of the following bacteria in each of the thus cultured media was determined.

Pseudomonas aeruginosa = experiment: Effect on intestinal bacteria: number of Pseudomonas aeruginosa in feces; type: in vivo, ICR mice; settings: mouse, in vivo, po, 500 mg/kg/day
Protocol: as §7, §8, §9
NAC agar 37° C., one day, […]

[5] = test system: a species of Streptococcus; experiment: Effect on intestinal bacteria: number of a sp. of Streptococcus in feces; type: in vivo, ICR mice; settings: mouse, in vivo, po, 500 mg/kg/day
Protocol: as §6, §7, §8, §9
a species of Streptococcus
TATAC agar 37° C., one day, […]

[6] = test system: Staphylococcus aureus IAM 1011; experiment: Treatment of experimental infectious disease in mouse due to Staphylococcus aureus; type: in vivo, ddY SPE mice; settings: oral, two times just after and 4 hours after inoculation; 2.3×10^8 cells i.p.
Description: as §10, §11, §12
(2) Disease due to infection of Staphylococcus aureus
Each mouse of the two groups (20 animals/group) of ddY SPE mice was inoculated with 2.3×10^8 cells of Staphylococcus aureus IAM 1011 intraperitoneally, and then, each mouse of the one of the two groups was administered orally with one of the present compounds, namely the compound produced in Example 5, 10 or 13, two times just after and 4 hours after the inoculation, while the 20 mice of the other group were not administered.

Compound | MIC [1] | MIC [2] | Number of Lactobacillus bifidus after the administration (Lactobacillus bifidus) | Number of a sp. of Lactobacillus after the administration [3] | Number of a sp. of Bacterioides after the administration (a species of Bacteroides) | mice alive on the 7th day of inoculation (Escherichia coli infection) [4] | Number of Escherichia coli after the administration (Escherichia coli) | Number of Pseudomonas aeruginosa after the administration (Pseudomonas aeruginosa) | Number of a sp. of Streptococcus after the administration [5] | mice alive on the 7th day of inoculation (Staphylococcus aureus infection) [6]
CC(=O)OCC1=C(C(=O)Nc2ccc(C)cc2)N2C(=O)C(NC(=O)CC#N)C2SC1 (stereo not drawn) [Example 10, N-(4-methylphenyl)-[7-(2-cyanoacetamido)caphalosporanic]amide] | ≥ 100 mg/L | ≥ 100 mg/L | 8.2 Log10 (number of bacteria/g feces) | 9.0 Log10 (number of bacteria/g feces) | 8.9 Log10 (number of bacteria/g feces) | more than 80% | 6.8 Log10 (number of bacteria/g feces) | < 3.0 Log10 (number of bacteria/g feces) | 6.8 Log10 (number of bacteria/g feces) | more than 85%
COC(=O)CNC(=O)c1ccc(NC(=O)C2=C(CSc3nnc(C)s3)CSC3C(NC(=O)Cn4cnnn4)C(=O)N23)cc1 (stereo not drawn) [Example 15, N-(4-carbomethoxymethylcarbamoylphenyl)-{7-(1-1H-tetrazolylacetamido)-3-[2-(5-methyl-1,3,4-thiadiazolyl)thiomethyl]-3-cephem-4-carboxylic}amide] | ≥ 100 mg/L | ≥ 12.5 mg/L | 8.2 Log10 (number of bacteria/g feces) | 9.1 Log10 (number of bacteria/g feces) | 8.2 Log10 (number of bacteria/g feces) | – | 6.5 Log10 (number of bacteria/g feces) | < 3.0 Log10 (number of bacteria/g feces) | 6.8 Log10 (number of bacteria/g feces) | –
COC(=O)c1ccc(NC(=O)C2=C(CSc3nnc(C)s3)CSC3C(NC(=O)Cn4cnnn4)C(=O)N23)cc1 (stereo not drawn) [Example 13, N-(4-carbomethoxyphenyl)-{7-(1-1H-tetrazolylacetamido)-3-[2-(5-methyl-1,3,4-thiadiazolyl)thiomethyl]-3-cephem-4-carboxylic}amide] | ≥ 100 mg/L | ≥ 12.5 mg/L | 8.4 Log10 (number of bacteria/g feces) | 9.0 Log10 (number of bacteria/g feces) | 8.7 Log10 (number of bacteria/g feces) | more than 80% | 6.4 Log10 (number of bacteria/g feces) | < 3.0 Log10 (number of bacteria/g feces) | 6.6 Log10 (number of bacteria/g feces) | more than 60%
COC(=O)CNC(=O)c1ccc(NC(=O)C2=C(COC(C)=O)CSC3C(NC(=O)CSc4ccncc4)C(=O)N23)cc1 (stereo not drawn) [Example 3, N-(4-carbomethoxymethylcarbamoylphenyl)-[7-(4-pyridylthioacetamido)cephalosporanic]amide] | ≥ 100 mg/L | ≥ 50 mg/L | 8.5 Log10 (number of bacteria/g feces) | 9.1 Log10 (number of bacteria/g feces) | 8.1 Log10 (number of bacteria/g feces) | – | 6.5 Log10 (number of bacteria/g feces) | < 3.0 Log10 (number of bacteria/g feces) | 6.7 Log10 (number of bacteria/g feces) | –
COC(=O)c1ccc(NC(=O)C2=C(COC(C)=O)CSC3C(NC(=O)CSc4ccncc4)C(=O)N23)cc1 (stereo not drawn) [Example 1, N-(4-carbomethoxyphenyl)-[7-beta-(4-pyridylthioacetamido)cephalosporanic]amide] | ≥ 100 mg/L | ≥ 12.5 mg/L | 8.4 Log10 (number of bacteria/g feces) | 9.1 Log10 (number of bacteria/g feces) | 8.8 Log10 (number of bacteria/g feces) | – | 6.9 Log10 (number of bacteria/g feces) | < 3.0 Log10 (number of bacteria/g feces) | 6.7 Log10 (number of bacteria/g feces) | –
COC(=O)CNC(=O)c1ccc(NC(=O)C2=C(C)CSC3C(NC(=O)[C@H](N)c4ccccc4)C(=O)N23)cc1 (stereo partly drawn) [Example 5, N-(4-carbomethoxymethylcarbamoylphenyl)-[7-(D-alpha-aminophenylacetamido)desacetoxycephalosporanic]amide] | ≥ 100 mg/L | ≥ 100 mg/L | 8.4 Log10 (number of bacteria/g feces) | 8.9 Log10 (number of bacteria/g feces) | 8.4 Log10 (number of bacteria/g feces) | more than 60% | 6.5 Log10 (number of bacteria/g feces) | < 3.0 Log10 (number of bacteria/g feces) | 6.7 Log10 (number of bacteria/g feces) | more than 65%
